Converted amounts (≈) assume the structure as drawn. Where two headings read alike, the source gives them in different places.
What was measured:
Log D measurement = format: physicochemical; details: octanol/water; read-out: LogD
Excerpt: Many standard techniques are known in the art to establish the distribution coefficient of a compound between two particular solvents. The following description is one such technique that could be used to determine the distribution coefficient: The shake-flask method, which consists of dissolving some of the compound in a volume of octanol and water, then physically shaking the mixture and allowing the two solvents to fully separate. The concentration of the compound in each solvent is then measured. The most common method of measuring the distribution of the solute is by HPLC or UV/Vis spectroscopic techniques.

Cytochrome P450 2D6 = Cytochrome P450 2D6 (Homo sapiens (Human), UniProt P10635); experiment: Cytochrome P450 inhibition, 2D6; format: in vitro ADME
Excerpt: (§1) Rapid screening for cytochrome P450 inhibitors is part of the current paradigm for avoiding development of drugs likely to give clinical pharmacokinetic drug-drug interactions and associated toxicities. There are commercially available assays for such screenings. For example, BD Biosciences (http://www.bdbiosciences.com/index.shtml) provides a technical bulletin describing a detailed, step-by-step procedure for the performance of the high throughput cytochrome P450 inhibition testing method.

hsDHODH = hsDHODH (Homo sapiens (Human), UniProt Q02127); experiment: DCIP assay, hsDHODH; format: biochemical; details: Table 3; DCIP assay, 20 nM hsDHODH; read-out: hsDHODH IC50
Excerpt: Type 2 DHODH activity was monitored with either the direct assay measuring the formation of orotate or via a chromogen reduction assay using DCIP. Although the extinction coefficient and absorption wavelength are preferable for the chromogen reduction assay, the inorganic electron acceptor DCIP can be utilized by DHODH as the final electron acceptor in lieu of CoQn when the endogenous substrate is at a low concentration. As such, the direct assay was used to measure the binding affinity of pfDHODH to CoQD and L-DHO. The enzymatic reaction was performed by varying the L-DHO concentration (1-400 μM) or CoQD concentration (1-200 μM) while keeping the other substrate constant and in excess. The formation of orotate was measured continuously at 296 nm (ε296=4.3 mM^−1 cm^−1). Inhibition of DHODH by small molecules was evaluated using the chromogen based assay with a final substrate concentration of 200 μM L-DHO, 18 μM CoQD, and 100 μM DCIP, unless otherwise noted. The reduction of DCIP was monitored at 600 nm (ε600=18.8 mM^−1 cm^−1).
Substrate specificity and enzyme inhibition data was analyzed with GraphPad Prism Version 4 for Windows (GraphPad Software). Kinetic constants were calculated by non-linear regression fitting of the data to the Michaelis-Menten equation [36]. IC50 values were determined by non-linear regression fitting of the data to Equation 1: […]

P. falciparum Dd2 = experiment: Inhibition of in vitro P. falciparum culture, [3H]-hypoxanthine uptake, Dd2; format: cell-based; details: Plasmodium falciparum; for EC50: DD2, Table 2b, read-out: Dd2 EC50; for IC50: DD2, Table 3, [3H]-hypoxanthine uptake, read-out: Dd2 IC50
Summary of the method: (§2)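 Parasite growth inhibition measured as relative reduction of [3H]-hypoxanthine uptake in in vitro cultures. Values from non-linear regression fit, using relative growth velocity in place of product-formation rate.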

Cytochrome P450 3A4 = Cytochrome P450 3A4 (Homo sapiens (Human), UniProt P08684); experiment: Cytochrome P450 inhibition, 3A4; format: in vitro ADME
Excerpt: as §1

Cytochrome P450 1A2 = Cytochrome P450 1A2 (Homo sapiens (Human), UniProt P05177); format: in vitro ADME
Excerpt: as §1

Hepatic clearance, rat = format: in vitro ADME
Excerpt: (§3) Clearance of drug by the liver will depend on the rate of delivery of drug to the liver (the hepatic blood flow) and on the efficiency of removal of drug which is presented to it (the extraction ratio). The hepatic clearance of compounds can be determined by standard methods known in the art. Such methods are described in, for example, Naritomi, Y; Terashita, S; Kagayama, A; Sugiyama, Y. “Utility of Hepatocytes in Predicting Drug Metabolism: Comparison of Hepatic Intrinsic Clearance in Rats and Humans in Vivo and in Vitro.” 2003, 31 (5): pages 580-588.

P. falciparum 3D7 = experiment: Inhibition of in vitro P. falciparum culture, [3H]-hypoxanthine uptake, 3D7; format: cell-based; details: Plasmodium falciparum; for EC50: 3D7, Table 2b, read-out: 3D7 EC50; for IC50: 3D7, Table 3, [3H]-hypoxanthine uptake, read-out: 3D7 IC50
Summary of the method: as §2

Solubility measurement = format: physicochemical; details: aqueous buffer, thermodynamic from solid; read-out: Solubility
Excerpt: Many standard techniques are known in the art to establish the solubility of a compound in a particular solvent. The following description is one such technique that could be used to determine the solubility: Equilibrium solubility measurements start with the solid form of the compound (crystalline form preferred). The powder is physically mixed with an aqueous buffer (defined pH) until equilibrium is reached. Either centrifugation or filtration can be used to separate the solution from the remaining solid. The amount dissolved in the solution can be determined by any one of many known methods including HPLC or UV/Vis spectroscopic techniques.

Permeability = format: in vitro ADME; details: Caco-2
Protocol: Permeability assays using the Caco-2 colon carcinoma cell line are being used throughout the pharmaceutical industry to estimate the ability of potential drug compounds to cross the intestinal epithelium. Caco-2 cell permeability studies are performed using Caco-2 cell monolayers grown on microporous membranes in multiwell insert systems. With the inserts suspended in the wells of multiwell plates, test compounds can be added to either the upper (apical) or lower (basolateral) chamber to measure permeability in the absorptive (apical to basolateral) or secretive (basolateral to apical) directions. Samples are then taken from the opposite chamber at various time intervals to measure the amount of test compound that has crossed the cell monolayer. A representative method to generate permeability data similar to that in Table 3 can be found in Alsenz, J; Haenel, E. “Development of a 7-Day, 96-Well Caco-2 Permeability Assay with High-Throughput Direct UV Compound Analysis.” Pharmaceutical Research 2003 20(12): p 1961-1969.
Parallel artificial membrane permeability assay (PAMPA) utilizes a simple phospholipid-coated filter disc to measure membrane permeability. It was developed as an alternative to the low throughput. Caco-2 cell permeability assay used to correlate passive permeability with in vivo oral absorption. A representative publication disclosing this method is Kerns, E H; Di, L; Petusky, S; Farris, M; Ley, R; Jupp, P. “Combined application of parallel artificial membrane permeability assay and Caco-2 permeability assays in drug discovery.” J. Pharma Sci. 2004, 93 (6), pages 1440-53.
Cell culture methods (e.g. Caco-2, HT-29 and MDC) and physicochemical methods such as PAMPA and immobilized artificial membrane (IAM) columns are known in the art and can be used to obtain data such as that in Table 3. Hidalgo, I J; “Assessing the absorption of new pharmaceuticals.” Curr Top Med. Chem. 2001 November; 1(5): p 385-401.

Cytochrome P450 2C9 = Cytochrome P450 2C9 (Homo sapiens (Human), UniProt P11712); experiment: Cytochrome P450 inhibition, 2C9; format: in vitro ADME
Excerpt: as §1

Hepatic clearance, human = format: in vitro ADME
Excerpt: as §3

Cytochrome P450 2C19 = Cytochrome P450 2C19 (Homo sapiens (Human), UniProt P33261); experiment: Cytochrome P450 inhibition, 2C19; format: in vitro ADME
Excerpt: as §1

pfDHODH = pfDHODH (Plasmodium falciparum (isolate 3D7), UniProt Q08210); experiment: DHODH chromogen reduction (DCIP) assay, pfDHODH; format: biochemical, P. falciparum; details: read-out: pfDHODH IC50
[1] = Table 3, DCIP assay, 20 nM pfDHODH

Chain of Cytochrome P450 1A2 (P05177 whole entry): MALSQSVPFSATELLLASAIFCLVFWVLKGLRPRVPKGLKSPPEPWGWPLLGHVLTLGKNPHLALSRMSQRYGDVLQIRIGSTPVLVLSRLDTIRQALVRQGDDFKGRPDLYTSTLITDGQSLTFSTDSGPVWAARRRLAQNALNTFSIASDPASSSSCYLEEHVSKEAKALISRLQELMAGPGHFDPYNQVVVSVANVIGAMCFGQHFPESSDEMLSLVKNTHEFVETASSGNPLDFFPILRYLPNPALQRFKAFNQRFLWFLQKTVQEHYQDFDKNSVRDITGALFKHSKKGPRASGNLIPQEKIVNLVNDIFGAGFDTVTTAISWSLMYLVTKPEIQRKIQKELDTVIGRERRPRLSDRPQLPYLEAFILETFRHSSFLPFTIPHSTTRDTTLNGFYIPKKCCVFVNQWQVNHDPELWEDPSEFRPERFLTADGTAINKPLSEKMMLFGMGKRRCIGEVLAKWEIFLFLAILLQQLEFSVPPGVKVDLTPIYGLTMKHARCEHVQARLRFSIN
Chain of Cytochrome P450 2C19 (P33261 whole entry): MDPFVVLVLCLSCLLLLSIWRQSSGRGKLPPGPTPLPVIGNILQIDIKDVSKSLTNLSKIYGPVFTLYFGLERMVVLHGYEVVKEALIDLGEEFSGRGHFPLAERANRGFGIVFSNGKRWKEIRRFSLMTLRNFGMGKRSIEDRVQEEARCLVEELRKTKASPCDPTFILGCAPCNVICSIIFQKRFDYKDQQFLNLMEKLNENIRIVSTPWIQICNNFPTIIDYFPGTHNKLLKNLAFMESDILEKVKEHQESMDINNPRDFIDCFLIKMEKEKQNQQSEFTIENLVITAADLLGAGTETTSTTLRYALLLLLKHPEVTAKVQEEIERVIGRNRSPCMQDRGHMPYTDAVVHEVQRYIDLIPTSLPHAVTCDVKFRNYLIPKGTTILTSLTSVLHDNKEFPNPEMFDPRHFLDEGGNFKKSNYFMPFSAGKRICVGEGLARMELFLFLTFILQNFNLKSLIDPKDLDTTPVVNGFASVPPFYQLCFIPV
Chain of pfDHODH (Q08210 159-565 limits assumed): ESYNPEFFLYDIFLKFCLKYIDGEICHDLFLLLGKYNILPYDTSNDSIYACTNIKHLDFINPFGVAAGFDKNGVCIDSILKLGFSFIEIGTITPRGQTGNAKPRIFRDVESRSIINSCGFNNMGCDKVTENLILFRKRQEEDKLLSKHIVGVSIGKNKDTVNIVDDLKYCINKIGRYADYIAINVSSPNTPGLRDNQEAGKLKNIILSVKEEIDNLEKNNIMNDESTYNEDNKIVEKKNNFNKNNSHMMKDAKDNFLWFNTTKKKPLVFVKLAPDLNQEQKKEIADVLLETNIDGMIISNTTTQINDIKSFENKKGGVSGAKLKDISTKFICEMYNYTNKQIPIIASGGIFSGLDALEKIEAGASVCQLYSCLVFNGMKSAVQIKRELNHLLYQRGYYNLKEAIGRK
Chain of Cytochrome P450 2D6 (P10635 whole entry): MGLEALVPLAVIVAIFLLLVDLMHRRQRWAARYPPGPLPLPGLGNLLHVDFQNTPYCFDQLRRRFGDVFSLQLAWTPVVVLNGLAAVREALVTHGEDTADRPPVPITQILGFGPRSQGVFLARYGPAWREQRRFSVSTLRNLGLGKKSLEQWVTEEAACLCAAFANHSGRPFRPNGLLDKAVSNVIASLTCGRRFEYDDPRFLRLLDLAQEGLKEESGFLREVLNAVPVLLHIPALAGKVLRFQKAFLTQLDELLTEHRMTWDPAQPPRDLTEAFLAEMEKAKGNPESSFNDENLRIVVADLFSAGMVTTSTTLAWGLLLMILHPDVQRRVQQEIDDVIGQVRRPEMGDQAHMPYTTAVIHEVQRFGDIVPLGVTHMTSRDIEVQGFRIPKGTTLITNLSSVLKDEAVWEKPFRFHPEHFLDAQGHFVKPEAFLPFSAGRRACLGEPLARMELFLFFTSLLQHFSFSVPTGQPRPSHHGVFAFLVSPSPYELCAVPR
Chain of Cytochrome P450 2C9 (P11712 whole entry): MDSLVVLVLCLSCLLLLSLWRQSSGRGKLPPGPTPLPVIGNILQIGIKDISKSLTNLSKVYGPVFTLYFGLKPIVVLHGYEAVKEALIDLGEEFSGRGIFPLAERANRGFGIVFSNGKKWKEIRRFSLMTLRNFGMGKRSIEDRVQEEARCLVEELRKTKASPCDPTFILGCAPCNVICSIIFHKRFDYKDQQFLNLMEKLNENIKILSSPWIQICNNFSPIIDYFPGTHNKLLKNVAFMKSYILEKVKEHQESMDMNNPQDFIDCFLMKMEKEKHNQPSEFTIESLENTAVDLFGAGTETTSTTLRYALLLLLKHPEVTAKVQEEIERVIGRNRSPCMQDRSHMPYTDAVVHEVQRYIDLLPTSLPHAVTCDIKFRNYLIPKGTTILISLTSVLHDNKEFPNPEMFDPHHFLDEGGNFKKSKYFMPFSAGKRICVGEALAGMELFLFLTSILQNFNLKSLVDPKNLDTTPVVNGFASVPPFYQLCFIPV
Chain of Cytochrome P450 3A4 (P08684 whole entry): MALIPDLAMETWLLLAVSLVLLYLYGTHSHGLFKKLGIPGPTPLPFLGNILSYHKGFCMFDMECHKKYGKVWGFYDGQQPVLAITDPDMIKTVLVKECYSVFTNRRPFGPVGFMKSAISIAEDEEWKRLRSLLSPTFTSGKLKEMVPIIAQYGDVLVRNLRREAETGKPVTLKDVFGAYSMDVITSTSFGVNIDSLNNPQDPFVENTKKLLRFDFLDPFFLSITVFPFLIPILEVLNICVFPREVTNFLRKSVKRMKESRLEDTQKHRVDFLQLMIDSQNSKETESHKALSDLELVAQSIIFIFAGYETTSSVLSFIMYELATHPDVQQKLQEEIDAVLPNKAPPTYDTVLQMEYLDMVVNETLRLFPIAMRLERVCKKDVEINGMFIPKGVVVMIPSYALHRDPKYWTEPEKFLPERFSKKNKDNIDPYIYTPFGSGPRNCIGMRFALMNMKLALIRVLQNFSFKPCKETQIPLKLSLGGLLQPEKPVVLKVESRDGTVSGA
Chain of hsDHODH (Q02127 29-395 limits assumed): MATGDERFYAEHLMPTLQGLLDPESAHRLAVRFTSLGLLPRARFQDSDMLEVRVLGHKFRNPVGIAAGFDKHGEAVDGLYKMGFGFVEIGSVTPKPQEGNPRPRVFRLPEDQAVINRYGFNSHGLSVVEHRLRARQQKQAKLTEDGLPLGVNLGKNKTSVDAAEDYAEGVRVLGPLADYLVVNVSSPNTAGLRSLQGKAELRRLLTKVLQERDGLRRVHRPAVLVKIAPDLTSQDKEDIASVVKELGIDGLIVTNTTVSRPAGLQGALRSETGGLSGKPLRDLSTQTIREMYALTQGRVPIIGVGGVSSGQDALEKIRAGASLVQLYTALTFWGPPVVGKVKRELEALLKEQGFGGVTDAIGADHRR

| SMILES | logD (Log D measurement) | Cytochrome P450 Inhibition, 2D6 (Cytochrome P450 2D6) | IC50 (hsDHODH) | EC50 (P. falciparum Dd2) | IC50 (P. falciparum Dd2) | Cytochrome P450 Inhibition, 3A4 (Cytochrome P450 3A4) | Cytochrome P450 Inhibition, 1A2 (Cytochrome P450 1A2) | microsomal CLint (Hepatic clearance, rat) | EC50 (P. falciparum 3D7) | IC50 (P. falciparum 3D7) | solubility (Solubility measurement) | Papp (Permeability) | Cytochrome P450 Inhibition, 2C9 (Cytochrome P450 2C9) | microsomal CLint (Hepatic clearance, human) | Cytochrome P450 Inhibition, 2C19 (Cytochrome P450 2C19) | IC50 (pfDHODH; Table 2b) | IC50 (pfDHODH; [1]) |
| --- | --- | --- | --- | --- | --- | --- | --- | --- | --- | --- | --- | --- | --- | --- | --- | --- | --- |
| CCCNC(=O)c1ccc(N2CCCCC2)s1 [Compound 8, 5-(piperidin-1-yl)-N-propylthiophene-2-carboxamide] | 3.2 | >5.0 in 2D6 μM | > 30 µM | > 10 µM | > 10 µM | >5.0 in 3A4 μM | >5.0 in 1A2 μM | > 119 µL/min/mg | > 10 µM | > 10 µM | > 30 µg/mL | 43 ×10⁻⁶ cm/s | >5.0 in 2C9 μM | > 72 µL/min/mg | >5.0 in 2C19 μM | 230 µM | > 30 µM |
| CCCNC(=O)c1ccc(-n2cccn2)s1 [Compound 9, N-propyl-5-(1H-pyrazol-1-yl)thiophene-2-carboxamide] | 2.2 | >5.0 in 2D6 μM | > 30 µM | > 10 µM | > 10 µM | >5.0 in 3A4 μM | >5.0 in 1A2 μM | 104 µL/min/mg | > 10 µM | > 10 µM | > 30 µg/mL | 22 ×10⁻⁶ cm/s | >5.0 in 2C9 μM | 59 µL/min/mg | >5.0 in 2C19 μM | > 250 µM | > 30 µM |
| CCCNC(=O)c1ccc(N2CCN(C)CC2)s1 [Compound 10, 5-(4-methylpiperazin-1-yl)-N-propylthiophene-2-carboxamide] | 1.5 | >5.0 in 2D6 μM | – | > 10 µM | > 10 µM | >5.0 in 3A4 μM | >5.0 in 1A2 μM | 16 µL/min/mg | > 10 µM | > 10 µM | 24 µg/mL (≈ 89.8 µM) | 11 ×10⁻⁶ cm/s | >5.0 in 2C9 μM | 8 µL/min/mg | >5.0 in 2C19 μM | > 250 µM | > 30 µM |
